Data taken from US11498899B2, “Nitrone herbicides” (FMC Corporation, priority 2016, dated 2022).

Experiments:
[1] = tested on: barnyardgrass (Echinochloa crus-galli); assay: Test A preemergence, visual injury rating 0-100 (0 no effect, 100 complete control); type: in vivo; details: for Barnyardgrass plant response rating (0 to 100 scale): 125 g ai/ha; for Barnyardgrass plant response rating: 500 g ai/ha, 0 to 100 scale
Description: (§1) Seeds of plant species selected from barnyardgrass (Echinochloa crus-galli), kochia (Kochia scoparia), ragweed (common ragweed, Ambrosia elatior), ryegrass, Italian (Italian ryegrass, Lolium multiflorum), foxtail, giant (giant foxtail, Setaria faberii), foxtail, green (green foxtail, Setaria viridis), and pigweed (Amaranthus retroflexus) were planted into a blend of loam soil and sand and treated preemergence with a directed soil spray using test chemicals formulated in a non-phytotoxic solvent mixture which included a surfactant.
(§2) At the same time, plants selected from these weed species and also wheat (Triticum aestivum), corn (Zea mays), blackgrass (Alopecurus myosuroides), and galium (catchweed bedstraw, Galium aparine) were planted in pots containing the same blend of loam soil and sand and treated with postemergence applications of test chemicals formulated in the same manner. Plants ranged in height from 2 to 10 cm and were in the one- to two-leaf stage for the postemergence treatment. Treated plants and untreated controls were maintained in a greenhouse for approximately 10 days, after which time all treated plants were compared to untreated controls and visually evaluated for injury. […] A dash (-) response means no test result.

[2] = tested on: wheat (Triticum aestivum); assay: Test A postemergence, visual injury rating 0-100; type: in vivo; details: 0 to 100 scale
Description: as §1, §2

[3] = tested on: ragweed (common ragweed, Ambrosia elatior); assay: Test A postemergence, visual injury rating 0-100; type: in vivo; details: 0 to 100 scale
Description: as §1, §2

[4] = tested on: galium (catchweed bedstraw, Galium aparine); assay: Test A postemergence, visual injury rating 0-100; type: in vivo; details: 0 to 100 scale
Description: as §1, §2

[5] = tested on: foxtail, giant (giant foxtail, Setaria faberii); assay: Test A postemergence, visual injury rating 0-100; type: in vivo; details: 0 to 100 scale
Description: as §1, §2

kochia (Kochia scoparia) [6] = assay: Test A postemergence, visual injury rating 0-100; type: in vivo; details: 0 to 100 scale
Description: as §1, §2

corn (Zea mays) = assay: Test A postemergence, visual injury rating 0-100; type: in vivo; details: 0 to 100 scale
Description: as §1, §2

[7] = tested on: blackgrass (Alopecurus myosuroides); assay: Test A postemergence, visual injury rating 0-100; type: in vivo; details: 0 to 100 scale
Description: as §1, §2

[8] = tested on: ryegrass, Italian (Italian ryegrass, Lolium multiflorum); assay: Test A postemergence, visual injury rating 0-100; type: in vivo; details: 0 to 100 scale
Description: as §1, §2

[9] = tested on: barnyardgrass (Echinochloa crus-galli); assay: Test A postemergence, visual injury rating 0-100; type: in vivo; details: 0 to 100 scale
Description: as §1, §2

[10] = tested on: pigweed (Amaranthus retroflexus); assay: Test A postemergence, visual injury rating 0-100; type: in vivo; details: 0 to 100 scale
Description: as §1, §2

rice (Oryza sativa) = assay: Test B flooded paddy test, visual rating 0-100 (0 no effect, 100 complete control); details: Flood, 250 g ai/ha, applied to paddy water, rated after 13 to 15 days
[11] = tested on: barnyardgrass (Echinochloa crus-galli); assay: Test B flooded paddy test, visual rating 0-100; details: Flood, 250 g ai/ha, applied to paddy water, rated after 13 to 15 days
[12] = tested on: ragweed (common ragweed, Ambrosia elatior); assay: Test A preemergence, visual injury rating 0-100; type: in vivo; details: for Ragweed plant response rating (0 to 100 scale): 125 g ai/ha; for Ragweed plant response rating: 500 g ai/ha, 0 to 100 scale
Description: as §1, §2

[13] = tested on: foxtail, giant (giant foxtail, Setaria faberii); assay: Test A preemergence, visual injury rating 0-100; type: in vivo; details: for Foxtail, Giant plant response rating (0 to 100 scale): 125 g ai/ha; for Foxtail, Giant plant response rating: 500 g ai/ha, 0 to 100 scale
Description: as §1, §2

kochia (Kochia scoparia) [14] = assay: Test A preemergence, visual injury rating 0-100; type: in vivo; details: for Kochia plant response rating (0 to 100 scale): 125 g ai/ha; for Kochia plant response rating: 500 g ai/ha, 0 to 100 scale
Description: as §1, §2

[15] = tested on: ryegrass, Italian (Italian ryegrass, Lolium multiflorum); assay: Test A preemergence, visual injury rating 0-100; type: in vivo; details: for Ryegrass, Italian plant response rating (0 to 100 scale): 125 g ai/ha; for Ryegrass, Italian plant response rating: 500 g ai/ha, 0 to 100 scale
Description: as §1, §2

[16] = tested on: pigweed (Amaranthus retroflexus); assay: Test A preemergence, visual injury rating 0-100; type: in vivo; details: for Pigweed plant response rating (0 to 100 scale): 125 g ai/ha; for Pigweed plant response rating: 500 g ai/ha, 0 to 100 scale
Description: as §1, §2

[17] = tested on: ducksalad (Heteranthera limosa); assay: Test B flooded paddy test, visual rating 0-100; details: Flood, 250 g ai/ha, applied to paddy water, rated after 13 to 15 days

Row | Structure (SMILES) | Barnyardgrass plant response rating (0 to 100 scale) [1] | Barnyardgrass plant response rating [1] | Wheat plant response rating ([2]; 125 g ai/ha) | Wheat plant response rating ([2]; 500 g ai/ha) | Ragweed plant response rating ([3]; 125 g ai/ha) | Ragweed plant response rating ([3]; 500 g ai/ha) | Galium plant response rating ([4]; 125 g ai/ha) | Galium plant response rating ([4]; 500 g ai/ha) | Foxtail, Giant plant response rating ([5]; 125 g ai/ha) | Foxtail, Giant plant response rating ([5]; 500 g ai/ha) | Kochia plant response rating (kochia (Kochia scoparia) [6]; 125 g ai/ha) | Kochia plant response rating (kochia (Kochia scoparia) [6]; 500 g ai/ha) | Corn plant response rating (corn (Zea mays); 125 g ai/ha) | Corn plant response rating (corn (Zea mays); 500 g ai/ha) | Blackgrass plant response rating ([7]; 125 g ai/ha) | Blackgrass plant response rating ([7]; 500 g ai/ha) | Ryegrass, Italian plant response rating ([8]; 125 g ai/ha) | Ryegrass, Italian plant response rating ([8]; 500 g ai/ha) | Barnyardgrass plant response rating ([9]; 125 g ai/ha) | Barnyardgrass plant response rating ([9]; 500 g ai/ha) | further results
1 | CC1=[N+]([O-])C(C(=O)Nc2cccc(F)c2F)C(c2ccc3c(c2)OCO3)C1 (racemic) [Compound 4] | 100 | 100 | 0 | 60 | 0 | 50 | 30 | 60 | 40 | 90 | 0 | 50 | 0 | 60 | 0 | 20 | 0 | 40 | 50 | 90 | Pigweed plant response rating ([10]; 125 g ai/ha): 0; Pigweed plant response rating ([10]; 500 g ai/ha): 20; Rice plant response rating (0 to 100 scale) (rice (Oryza sativa)): 10; Barnyardgrass plant response rating (0 to 100 scale) [11]: 60; Ragweed plant response rating (0 to 100 scale) [12]: 0; Ragweed plant response rating [12]: 100; Foxtail, Giant plant response rating (0 to 100 scale) [13]: 100; Foxtail, Giant plant response rating [13]: 100; Kochia plant response rating (0 to 100 scale) (kochia (Kochia scoparia) [14]): 0; Kochia plant response rating (kochia (Kochia scoparia) [14]): 80; Ryegrass, Italian plant response rating (0 to 100 scale) [15]: 0; Ryegrass, Italian plant response rating [15]: 20; Pigweed plant response rating (0 to 100 scale) [16]: 20; Pigweed plant response rating [16]: 90; Ducksalad plant response rating (0 to 100 scale) [17]: 40
2 | CC1=[N+]([O-])C(C(=O)Nc2cccc(F)c2F)C(c2cccc(F)c2)C1 (racemic) [Compound 8] | 90 | 90 | 0 | 50 | 0 | 0 | 20 | 60 | 90 | 90 | 0 | 40 | 0 | 0 | 0 | 30 | 0 | 50 | 50 | 90 | Pigweed plant response rating ([10]; 125 g ai/ha): 0; Pigweed plant response rating ([10]; 500 g ai/ha): 20; Rice plant response rating (0 to 100 scale) (rice (Oryza sativa)): 0; Barnyardgrass plant response rating (0 to 100 scale) [11]: 85; Ragweed plant response rating (0 to 100 scale) [12]: 0; Ragweed plant response rating [12]: 80; Foxtail, Giant plant response rating (0 to 100 scale) [13]: 90; Foxtail, Giant plant response rating [13]: 90; Kochia plant response rating (0 to 100 scale) (kochia (Kochia scoparia) [14]): 0; Kochia plant response rating (kochia (Kochia scoparia) [14]): 50; Ryegrass, Italian plant response rating (0 to 100 scale) [15]: 0; Ryegrass, Italian plant response rating [15]: 40; Pigweed plant response rating (0 to 100 scale) [16]: 20; Pigweed plant response rating [16]: 40; Ducksalad plant response rating (0 to 100 scale) [17]: 100
